For 9 compounds, MIC results are on record in ChEMBL document CHEMBL1133079, “Synthesis and antibacterial activity of novel 6-O-substituted erythromycin A derivatives” (2000).

Type in all cases: functional
For assay [1], the system named is Staphylococcus aureus. Briefly: In vitro minimum inhibitory concentration against Staphylococcus aureus A5177.
In assay [2] the test system is Streptococcus pyogenes. Briefly: In vitro minimum inhibitory concentration against Streptococcus pyogenes PIU 2548 using standard agar dilution method.
Another assay deals with Haemophilus influenzae. Description: In vitro minimum inhibitory concentration against Haemophilus influenzae DILL using standard agar dilution method. (Agar dilution tests growth on a series of plates holding different concentrations.)
For assay [3], the system named is Streptococcus pneumoniae. Description: In vitro minimum inhibitory concentration against Streptococcus pneumoniae 5649.
Assay [4] concerns Streptococcus pyogenes. Briefly: In vitro minimum inhibitory concentration against Streptococcus pyogenes 930 using standard agar dilution method.
Assay [5] relates to Streptococcus pneumoniae. Description: In vitro minimum inhibitory concentration against Streptococcus pneumoniae ATCC 6303.
Assay [6] deals with Staphylococcus aureus. Briefly: In vitro minimum inhibitory concentration against Staphylococcus aureus 6538P using standard agar dilution method.
In assay [7] the test system is Streptococcus pneumoniae. Briefly: In vitro minimum inhibitory concentration against Streptococcus pneumoniae 5737.
The subject of assay [8] is Streptococcus pyogenes. Description: In vitro minimum inhibitory concentration against Streptococcus pyogenes EES61 using standard agar dilution method.

Molecules are shown by their SMILES. Values after ≈ are worked out from the molar mass of the structure shown. Bounds are passed on as bounds.

For `CC[C@H]1OC(=O)[C@H](C)[C@@H](O[C@H]2C[C@@](C)(OC)[C@@H](O)[C@H](C)O2)[C@H](C)[C@@H](O[C@@H]2O[C@H](C)C[C@H](N(C)C)[C@H]2O)[C@@](C)(OCCNCCc2ccccc2)C[C@@H](C)C(=O)[C@H](C)[C@@H](O)[C@]1(C)O`, the MIC came to 12.5 µg/mL (≈ 14.2 µM) with Staphylococcus aureus [1]; 8 µg/mL (≈ 9.08 µM) in the assay on Streptococcus pyogenes [2]; 2 µg/mL (≈ 2.27 µM) in the assay on Haemophilus influenzae; 4 µg/mL (≈ 4.54 µM) with Streptococcus pneumoniae [3]; 64 µg/mL (≈ 72.6 µM) in the assay on Streptococcus pyogenes [4]; 0.03 µg/mL (≈ 0.034 µM) in the assay with Streptococcus pneumoniae [5]. Further, the MIC against Staphylococcus aureus [6] stood at 0.2 µg/mL (≈ 0.227 µM); with Streptococcus pneumoniae [7], 64 µg/mL (≈ 72.6 µM); in the assay with Streptococcus pyogenes [8], 0.015 µg/mL (≈ 0.017 µM).
Take `CC[C@H]1OC(=O)[C@H](C)[C@@H](O[C@H]2C[C@@](C)(OC)[C@@H](O)[C@H](C)O2)[C@H](C)[C@@H](O[C@@H]2O[C@H](C)C[C@H](N(C)C)[C@H]2O)[C@](C)(O)C[C@@H](C)C(=O)[C@H](C)[C@@H](O)[C@]1(C)O` [ERYTHROMYCIN]: the MIC with Staphylococcus aureus [1] is 6.2 µg/mL (≈ 8.45 µM); with Streptococcus pyogenes [2], 32 µg/mL (≈ 43.6 µM); against Haemophilus influenzae it was 4 µg/mL (≈ 5.45 µM); against Streptococcus pneumoniae [3], 16 µg/mL (≈ 21.8 µM); in the assay on Streptococcus pyogenes [4] it was > 128 µg/mL; in the assay on Streptococcus pneumoniae [5] it was 0.06 µg/mL (≈ 0.0818 µM). Further, the MIC with Staphylococcus aureus [6] is 0.2 µg/mL (≈ 0.273 µM); against Streptococcus pneumoniae [7], > 128 µg/mL; with Streptococcus pyogenes [8] it was 0.03 µg/mL (≈ 0.0409 µM).
With `CC[C@H]1OC(=O)[C@H](C)[C@@H](O[C@H]2C[C@@](C)(OC)[C@@H](O)[C@H](C)O2)[C@H](C)[C@@H](O[C@@H]2O[C@H](C)C[C@H](N(C)C)[C@H]2O)[C@@](C)(OC/C=C/c2cnc3ccccc3c2)C[C@@H](C)C(=O)[C@H](C)[C@@H](O)[C@]1(C)O`, the MIC was determined as 3.1 µg/mL (≈ 3.44 µM) against Staphylococcus aureus [1]; 4 µg/mL (≈ 4.44 µM) against Streptococcus pyogenes [2]; 8 µg/mL (≈ 8.88 µM) with Haemophilus influenzae; 4 µg/mL (≈ 4.44 µM) against Streptococcus pneumoniae [3]; 64 µg/mL (≈ 71 µM) in the assay on Streptococcus pyogenes [4]; 0.06 µg/mL (≈ 0.0666 µM) against Streptococcus pneumoniae [5]. Moreover, the MIC amounted to 0.2 µg/mL (≈ 0.222 µM) against Staphylococcus aureus [6], 128 µg/mL (≈ 142 µM) against Streptococcus pneumoniae [7] and 0.06 µg/mL (≈ 0.0666 µM) in the assay with Streptococcus pyogenes [8].
With `CC[C@H]1OC(=O)[C@H](C)[C@@H](O[C@H]2C[C@@](C)(OC)[C@@H](O)[C@H](C)O2)[C@H](C)[C@@H](O[C@@H]2O[C@H](C)C[C@H](N(C)C)[C@H]2O)[C@@](C)(OC/C=C/c2ccccc2)C[C@@H](C)C(=O)[C@H](C)[C@@H](O)[C@]1(C)O`, the MIC against Staphylococcus aureus [1] worked out at 6.2 µg/mL (≈ 7.29 µM); against Streptococcus pyogenes [2], 16 µg/mL (≈ 18.8 µM); in the assay on Haemophilus influenzae it was 4 µg/mL (≈ 4.71 µM); in the assay with Streptococcus pneumoniae [3], 4 µg/mL (≈ 4.71 µM); in the assay on Streptococcus pyogenes [4] it was 32 µg/mL (≈ 37.6 µM); against Streptococcus pneumoniae [5], 0.06 µg/mL (≈ 0.0706 µM). The MIC in the assay on Staphylococcus aureus [6] is 0.39 µg/mL (≈ 0.459 µM); against Streptococcus pneumoniae [7], 32 µg/mL (≈ 37.6 µM); against Streptococcus pyogenes [8] it was 0.03 µg/mL (≈ 0.0353 µM).
Take `CC[C@H]1OC(=O)[C@H](C)[C@@H](O[C@H]2C[C@@](C)(OC)[C@@H](O)[C@H](C)O2)[C@H](C)[C@@H](O[C@@H]2O[C@H](C)C[C@H](N(C)C)[C@H]2O)[C@@](C)(OCC2CO2)C[C@@H](C)C(=O)[C@H](C)[C@@H](O)[C@]1(C)O` (stereo partly drawn): the MIC was 25 µg/mL (≈ 31.6 µM) against Staphylococcus aureus [1]; > 128 µg/mL against Streptococcus pyogenes [2]; > 128 µg/mL with Haemophilus influenzae; > 128 µg/mL in the assay with Streptococcus pyogenes [4]; 25 µg/mL (≈ 31.6 µM) in the assay on Staphylococcus aureus [6]; 4 µg/mL (≈ 5.06 µM) against Streptococcus pyogenes [8].
As to `C#CCO[C@@]1(C)C[C@@H](C)C(=O)[C@H](C)[C@@H](O)[C@](C)(O)[C@@H](CC)OC(=O)[C@H](C)[C@@H](O[C@H]2C[C@@](C)(OC)[C@@H](O)[C@H](C)O2)[C@H](C)[C@H]1O[C@@H]1O[C@H](C)C[C@H](N(C)C)[C@H]1O`, the MIC was 12.5 µg/mL (≈ 16.2 µM) in the assay on Staphylococcus aureus [1]; 16 µg/mL (≈ 20.7 µM) with Haemophilus influenzae; 16 µg/mL (≈ 20.7 µM) against Streptococcus pneumoniae [3]; > 128 µg/mL in the assay with Streptococcus pyogenes [4]; 0.06 µg/mL (≈ 0.0777 µM) with Streptococcus pneumoniae [5]; 0.2 µg/mL (≈ 0.259 µM) with Staphylococcus aureus [6]. Also, the MIC against Streptococcus pneumoniae [7] was > 128 µg/mL; in the assay with Streptococcus pyogenes [8] it was 0.03 µg/mL (≈ 0.0389 µM).
With `CC[C@H]1OC(=O)[C@H](C)[C@@H](O[C@H]2C[C@@](C)(OC)[C@@H](O)[C@H](C)O2)[C@H](C)[C@@H](O[C@@H]2O[C@H](C)C[C@H](N(C)C)[C@H]2O)[C@@](C)(OCc2ccccc2)C[C@@H](C)C(=O)[C@H](C)[C@@H](O)[C@]1(C)O`, the MIC is 12.5 µg/mL (≈ 15.2 µM) in the assay on Staphylococcus aureus [1]; 16 µg/mL (≈ 19.4 µM) against Streptococcus pyogenes [2]; 16 µg/mL (≈ 19.4 µM) in the assay with Streptococcus pneumoniae [3]; > 128 µg/mL in the assay with Streptococcus pyogenes [4]; 1.56 µg/mL (≈ 1.89 µM) in the assay with Staphylococcus aureus [6]; 64 µg/mL (≈ 77.7 µM) against Streptococcus pneumoniae [7]. Moreover, the MIC in the assay with Streptococcus pyogenes [8] turned out to be 0.06 µg/mL (≈ 0.0728 µM).
Turning to `CC[C@H]1OC(=O)[C@H](C)[C@@H](O[C@H]2C[C@@](C)(OC)[C@@H](O)[C@H](C)O2)[C@H](C)[C@@H](O[C@@H]2O[C@H](C)C[C@H](N(C)C)[C@H]2O)[C@@](C)(OCC#N)C[C@@H](C)C(=O)[C@H](C)[C@@H](O)[C@]1(C)O`, the MIC in the assay on Streptococcus pyogenes [2] was 32 µg/mL (≈ 41.4 µM); in the assay with Haemophilus influenzae, 8 µg/mL (≈ 10.3 µM); against Streptococcus pneumoniae [3] it was 16 µg/mL (≈ 20.7 µM); against Streptococcus pyogenes [4], > 128 µg/mL; in the assay on Streptococcus pneumoniae [5], 0.06 µg/mL (≈ 0.0776 µM); against Staphylococcus aureus [6], 0.2 µg/mL (≈ 0.259 µM). The MIC in the assay with Streptococcus pneumoniae [7] is > 128 µg/mL; against Streptococcus pyogenes [8] it was 0.03 µg/mL (≈ 0.0388 µM).
For `CC[C@H]1OC(=O)[C@H](C)[C@@H](O[C@H]2C[C@@](C)(OC)[C@@H](O)[C@H](C)O2)[C@H](C)[C@@H](O[C@@H]2O[C@H](C)C[C@H](N(C)C)[C@H]2O)[C@@](C)(OCC(C)=O)C[C@@H](C)C(=O)[C@H](C)[C@@H](O)[C@]1(C)O`, the MIC against Streptococcus pyogenes [2] was 128 µg/mL (≈ 162 µM); in the assay with Streptococcus pyogenes [4] it was > 128 µg/mL; in the assay on Staphylococcus aureus [6], 3.1 µg/mL (≈ 3.92 µM).
